Entries after “also recorded” stand apart in the source; their conditions may differ. Read-outs that look alike come from different tables or passages of the source.
Legend:
[1] = test system: miracidia; set-up: method as in Roquis et al., 2018; conditions: ref Roquis et al., 2018; cited from earlier work
[2] = test system: H3K36me2; assay: H3K36me2 detection in adult worm histone extracts; type: cell-based, Schistosoma mansoni; conditions: adult schistosome pairs, 72 h, vs DMSO
Experimental: LLY-507 (6.25 μM), BAY-598 (25 μM) or siSmp_000700 treated male and female worms (alongside DMSO or siLuc controls; 21 individuals per condition) were homogenized with a TissueLyser (Qiagen) and total histones extracted using the EpiQuik^TM Total Histone Extraction Kit (Epigentek). Levels of H3K36me2 in adult histone extracts were measured using the EpiQuik^TM Global Di-Methyl Histone H3-K36 Quantification Kit (Fluorimetric, Epigentek). Technical duplicates of three biological replicates of each treatment were analysed according to the manufacturer’s instructions. Fluorescent readings (530EX/590EM nm) were obtained using a POLARstar Omega (BMG Labtech, UK) microtiter plate reader. Fluorescent values of the samples were corrected by subtracting the fluorescent readings of the blank (buffer only, provided in the kit). The mean of the adjusted control values (DMSO for LLY-507/BAY-598 treated worms and siLuc for siSmp_000700 treated worms) was set at 100% H3K36me2 and the standard deviation (SD) was calculated from the normalised values.

[3] = test system: S. mansoni schistosomula; assay: In vitro schistosomula screening (Roboworm platform), phenotype and motility; type: cell-based, Schistosoma mansoni; conditions: for hit / activity against schistosomula, single-point screen / schistosomula phenotype by microscopic assessment: 10 μM; for hit / activity against schistosomula, single-point screen / EC50 / schistosomula phenotype by microscopic assessment: 72 h; for hit / activity against schistosomula, single-point screen: hit cut-offs phenotype -0.15, motility -0.35; for SELECTIVITY INDEX Schistosomula Phenotype: CC50 HepG2 / schistosomula phenotype EC50; for EC50: Schistosoma mansoni; for SELECTIVITY INDEX Schistosomula Motility: CC50 HepG2 / schistosomula motility EC50
Experimental: Briefly, 384-well tissue culture plates (Perkin Elmer, cat 6007460), containing 20 μl of Basch medium, were wet-stamped using a Biomek NX^P liquid handling platform (Beckman Coulter, UK) with negative (0.625% dimethyl sulfoxide, DMSO) and positive controls (AUR and PZQ at 10 μM final concentration in 0.625% DMSO) as well as 37 SGC compounds (at 10 μM final concentration in 0.625% DMSO). […] To each pre-loaded well (single concentration or titration screens), a total of 100–120 mechanically transformed schistosomula (in 60 μl) were deposited via a WellMate (Thermo Scientific, UK). Schistosomula/compound co-cultures (80 μl in total) were then incubated at 37°C for 72 h in a humidified atmosphere containing 5% CO2. At 72 h, tissue culture plates (containing schistosomula/compound co-cultures) were imaged under the same conditions (37°C in a humidified atmosphere containing 5% CO2) using an ImageXpressXL high content imager (Molecular Devices, UK) with subsequent images processed for phenotype and motility as previously reported and successfully implemented by us at Aberystwyth University. Single point schistosomula screens (10 μM) were repeated two or three times whereas dose response titrations were performed once. Zˊ values obtained from all schistosomula screens ranged from 0.27–0.48 (mean = 0.40) for phenotype and 0.41–0.56 (mean = 0.48) for motility.

[4] = HepG2 cell cytotoxicity, MTT assay; type: cell-based, Human; conditions: human, HepG2 cells, read-out: CC50 (HepG2) (95% Confidence Intervals)
Experimental: (§1) Human Hepatocyte Carcinoma (HepG2) cells (Sigma Aldrich, UK) were utilized to assess SGC epigenetic probe cell cytotoxicity in the application of the MTT (3-(4,5-dimethylthiazol-2-yl)-2,5-diphenyltetrazolium bromide) assay. Briefly, cells were passaged at 70–80% confluence and seeded (20,000 cells/ 50 μL per well) in a 96-well, black-sided, clear-bottomed falcon plate (Fisher Scientific, UK) with the final plate column (8 wells) being treated as a blank (media only). Following a 24 h incubation (5% CO2, 37°C, humidified), HepG2 cells were then treated with 50 μL of pre-warmed media (37°C) containing SGC EPs/EIs at 200 μM to 0.02 μM (final concentration 100 μM, 10 μM, 1 μM, 0.1 μM and 0.01 μM). Three positive (1% Triton X-100) and negative (1% DMSO) control wells per plate were additionally included.
(§2) After addition of compounds, each plate was then incubated for a further 20 h before application of MTT for assessment of overt compound cytotoxicity using the MTT assay. The MTT assay was read using the POLARstar Omega (BMG LabTech, UK) plate reader at an absorbance of 570 nm. CC50s were calculated in GraphPad Prism.

[5] = test system: adult male and female schistosome pairs; assay: In vitro adult schistosome screening (WHO/TDR motility, egg counts); type: cell-based, Schistosoma mansoni; conditions: for SELECTIVITY INDEX Adult Females: CC50 HepG2 / adult female EC50; for SELECTIVITY INDEX Adult Males: CC50 HepG2 / adult male EC50; for EC50: Schistosoma mansoni; for EC50 / adult worm motility and IVLE production: 72 h; for adult worm motility and IVLE production: 3.13 μM and 6.25 μM, vs DMSO
Experimental: In vitro screening was replicated three times on different dates to account for any biological variation. Briefly three adult worm pairs/well (48-well tissue culture plate format) were placed into DMEM (Gibco, Paisley, UK) supplemented with 10% (v/v) FCS (Gibco, Paisley, UK), 1% (v/v) L-glutamine (Gibco, Paisley, UK) and an antibiotic mixture (150 Units/ml penicillin and 150 μg/ml streptomycin; Gibco, UK). DMSO (0.5% negative control), AUR (10 μM concentration in 0.5% DMSO; positive control) and two-fold titrations of SGC compounds (50 μM– 6.25 μM or 50 μM– 0.05 μM; in 0.5% DMSO max) were added, and together, these adult worm/compound co-cultures were incubated at 37°C for 72 h in a humidified atmosphere containing 5% CO2. Following compound incubation, WHO/TDR readouts of adult worm motility, abundance of H3K36me2 (LLY-507 and BAY-598 treated worms only) in histone extracts and egg counts/well were recorded at 72 h.

[6] = test system: HepG2 cells; assay: HepG2 cell cytotoxicity, MTT assay; type: cell-based, Human; conditions: 20 h, read-out: CC50 (HepG2) (95% Confidence Intervals)
Experimental: as §1, §2

[7] = test system: in vitro laid eggs (IVLEs) of adult worm pairs; assay: Vitellocyte and egg volume quantification of in vitro laid eggs (LSCM); type: cell-based, Schistosoma mansoni; conditions: 72 h, n = 10 eggs
Description: Fluorescent microscopic images (10 eggs per treatment) were captured on a Leica TCS SP8 super resolution laser confocal microscope fitted with a 63 X (water immersion) objective using the Leica Application Suite X. Green (egg autofluorescence) fluorescence was visualised with an argon or diode-pumped, solid state (DPSS) laser at 488 nm. DAPI was visualised using a 405 nm blue diode laser. The number of vitellocytes (DAPI^+ cells) and overall volume (mapped by the green autofluorescence) for individual eggs were calculated using IMARIS 7.3 software (Bitplane).

[8] = cited from earlier work
[9] = two-fold titration 10 μM–0.625 μM, single replicate, approximate, read-out: SCHISTOSOMULA EC50 Phenotype
[10] = motility, adult females, read-out: ADULT EC50 (95% Confidence Intervals) Females
[11] = motility, adult males, read-out: ADULT EC50 (95% Confidence Intervals) Males
[12] = two-fold titration 10 μM–0.625 μM, single replicate, approximate, read-out: SCHISTOSOMULA EC50 Motility

## COc1cc2c(cc1OCCCN1CCCC1)N=C(N)C21CCC1 [A-366, 5'-Methoxy-6'-[3-(1-pyrrolidinyl)propoxy]spiro[cyclobutane-1,3'-indol]-2'-amine]
[1]
  miracidia to sporocyst transformation: completely block

## CCN(C(=O)CO)[C@H]1CN(C(=NC#N)Nc2cccc(OC(F)F)c2)N=C1c1ccc(Cl)c(Cl)c1 [BAY-598, (S)-N-[1-{N′-Cyano-N-[3-(difluoromethoxy)phenyl]carbamimidoyl}-3-(3,4-dichlorophenyl)-4,5-dihydro-1H-pyrazol-4-yl]-N-ethyl-2-hydroxyacetamide]
[2]; 25 μM
  reduction in H3K36me2: 23%
[3]
  hit / activity against schistosomula, single-point screen: are hits against schistosomula; also recorded: both active against schistosomula
  SELECTIVITY INDEX Schistosomula Phenotype: 10.40
[3]; [9]
  EC50: 4.81 µM
[4]
  CC50 at 20 h: > 50 µM
[5]
  SELECTIVITY INDEX Adult Females: 3.02
  SELECTIVITY INDEX Adult Males: 2.24
[5]; [10]
  EC50: 16.5 µM
[5]; [11]
  EC50: 22.4 µM

## CCOC(=O)CCNc1cc(N2CCc3ccccc3CC2)nc(-c2ccccn2)n1 [GSK-J4, ethyl 3-[[2-pyridin-2-yl-6-(1,2,4,5-tetrahydro-3-benzazepin-3-yl)pyrimidin-4-yl]amino]propanoate]
[3]
  schistosomula phenotype by microscopic assessment: phenotypes comparable to auranofin
  SELECTIVITY INDEX Schistosomula Motility: 16.55
  SELECTIVITY INDEX Schistosomula Phenotype: 18.62
[3]; [12]
  EC50: 6.04 µM
[3]; [9]
  EC50: 5.37 µM
[4]
  CC50 at 20 h: > 50 µM
[6]
  CC50: > 100 µM
[7]; 0.2 μM
  number of vitellocytes per egg (packaging into IVLEs): significantly inhibited the packaging
  overall egg volume: no difference
[5]
  adult worm motility and IVLE production: led to adult worm motility and IVLE deficiencies
  SELECTIVITY INDEX Adult Females: 8.78
  SELECTIVITY INDEX Adult Males: 25.49
[5]; [10]
  EC50: 11.4 µM
[5]; [11]
  EC50: 3.92 µM
[8]
  cell permeability: cell-permeable

## COc1ccccc1C(=O)Nc1cc2c(cc1N1CCCC1)n(C)c(=O)n2C [PFI-4, N-(1,3-dimethyl-2-oxo-6-(pyrrolidin-1-yl)-2,3-dihydro-1H-benzo[d]imidazol-5-yl)-2-methoxybenzamide]
[3]
  SELECTIVITY INDEX Schistosomula Motility: 19.52
  SELECTIVITY INDEX Schistosomula Phenotype: 19.18
[3]; read-out: SCHISTOSOMULA EC50 Motility
  EC50: 5.12 µM
[3]; read-out: SCHISTOSOMULA EC50 Phenotype
  EC50: 5.22 µM
[4]
  CC50 at 20 h: > 50 µM
[6]
  CC50: > 100 µM
[5]
  SELECTIVITY INDEX Adult Females: 3.20
  SELECTIVITY INDEX Adult Males: 3.33
[5]; read-out: ADULT EC50 (95% Confidence Intervals) Females
  EC50: 31.2 µM
[5]; read-out: ADULT EC50 (95% Confidence Intervals) Males
  EC50: 30.1 µM

## O=C(O)CCNc1cc(N2CCc3ccccc3CC2)nc(-c2ccccn2)n1 [GSK-J1]
[3]
  hit / activity against schistosomula, single-point screen: None of these chemotype controls demonstrated anti-schistosomula activity
[7]; 6.25 μM
  number of vitellocytes per egg (packaging into IVLEs): did not
  overall egg volume: no difference
[5]
  adult worm motility and IVLE production: did not substantially alter these phenotypes
[8]; not told
  cell permeability: cell impermeable

## Cc1cn(CCN2CCN(c3ccccc3-c3cc(C#N)cc(C(=O)NCCCN4CCCC4)c3)CC2)c2ccccc12 [LLY-507, 5-(2-(4-(2-(9-methyl-7-aza-bicyclo[4.3.0]nona-1(6),2,4,8-tetraen-7-yl)-ethyl)-piperazin-1-yl)-phenyl)-3-((3-(pyrrolidin-1-yl)-propylamino)-formyl)-benzonitrile]
[2]; 6.25 μM
  reduction in H3K36me2: 25%
[3]
  schistosomula phenotype by microscopic assessment: phenotypes comparable to auranofin
  hit / activity against schistosomula, single-point screen: are hits against schistosomula; also recorded: both active against schistosomula
  SELECTIVITY INDEX Schistosomula Motility: 8.47
  SELECTIVITY INDEX Schistosomula Phenotype: 8.24
[3]; [12]
  EC50: 2.81 µM
[3]; [9]
  EC50: 2.88 µM
[4]
  CC50 at 20 h: 23.8 µM
[5]
  SELECTIVITY INDEX Adult Females: 3.13
  SELECTIVITY INDEX Adult Males: 2.55
[5]; [10]
  EC50: 7.59 µM
[5]; [11]
  EC50: 9.32 µM

## CCCc1cc(C)[nH]c(=O)c1CNC(=O)c1cc(-c2ccnc(N3CCN(C)CC3)c2)cc2c1cnn2C(C)C [GSK343, N-[(1,2-Dihydro-6-methyl-2-oxo-4-propyl-3-pyridinyl)methyl]-1-(1-methylethyl)-6-[2-(4-methyl-1-piperazinyl)-4-pyridinyl]-1H-indazole-4-carboxamide, N-[(6-Methyl-2-oxo-4-propyl-1,2-dihydropyridin-3-yl)methyl]-6-[2-(4-methylpiperazin-1-yl)pyridin-4-yl]-1-(propan-2-yl)-1H-indazole-4-carboxamide]
[1]
  miracidia to sporocyst transformation: completely block
[3]
  hit / activity against schistosomula, single-point screen: identified as a hit
  SELECTIVITY INDEX Schistosomula Phenotype: 9.24
[3]; [9]
  EC50: 3.17 µM
[4]
  CC50 at 20 h: 29.2 µM
[5]
  SELECTIVITY INDEX Adult Females: 1.16
  SELECTIVITY INDEX Adult Males: 1.17
[5]; [10]
  EC50: 25.3 µM
[5]; [11]
  EC50: 25 µM

Reference: PMC6881072, “The repositioning of epigenetic probes/inhibitors identifies new anti-schistosomal lead compounds and chemotherapeutic targets” (PLoS Neglected Tropical Diseases, 2019)
